The values that follow come from article PMC12842892, “Truncated Equinin B Variants Reveal the Sequence Determinants of Antimicrobial Selectivity” (Marine Drugs, 2026).

Converted amounts (≈) assume the structure as drawn. Where two headings read alike, the source gives them in different places. Where a SMILES comes first, the peptide text is derived from it. Where no end group is shown, it is not given here.

Assay [1] relates to Staphylococcus epidermidis DSM 20044. The class given is cell-based. As to the method: (§1) For these studies we used reference strains Escherichia coli ATCC25922, Bacillus subtilis 168c, Staphylococcus epidermidis DSM 20044 (DSMZ Gmbh, Brauschweig, Germany) and Enterococcus hirae DSM 3320 (DSMZ Gmbh, Germany). Bacterial cells were inoculated into Mueller–Hinton Broth II (MHB II; Sigma-Aldrich, Steinheim, Germany) and grown to the mid-logarithmic phase, washed in sodium buffered saline (PBS, 137 mM NaCl, 2.7 mM KCl, 10 mM Na2HPO4, and 2 mM KH2PO4, pH 7.4). The culture was adjusted to ~1 × 10^6 CFU/mL and dispensed into 96-well microtiter plates. Peptides were tested in two-fold serial dilutions across a concentration range of 0.4–100 µM, each concentration assayed in duplicate. Growth control wells (bacteria + medium, no peptide) and sterility control wells (medium only) were included. In parallel, the inoculum density and purity were verified by plating serial dilutions of the bacterial culture on MHB agar. After incubation at 37 °C for 20 h under static conditions, bacterial growth was quantified by measuring optical density at 620 nm (OD 620). […] The experiment was repeated in three independent biological replicates.

Assay [2] relates to Gram-positive and Gram-negative bacteria. Conditions: cited from earlier work. An excerpt:
Even though the discovery of antibiotics revolutionized medicine, their inappropriate use has enabled the spread of resistant bacteria and rendered commercially available antibiotics ineffective. Antibiotic resistance (AR) is one of the greatest threats, and the development of new molecules with antibacterial activity has become a global priority. Antimicrobial peptides (AMPs), naturally occurring defense molecules found across many species, represent a powerful alternative antibacterial strategy against antibiotic-resistant pathogens. As part of the innate immune response, ...

The test system of assay [3] is B. subtilis. The assay can be described thus: Membrane permeability assay (propidium iodide uptake), B. subtilis. Conditions: 1 × 10^7 cells/mL in PBS; PI 2.5 µg/mL; up to 400 µM; 37 °C, 120 min; fluorescence 535/617 nm; three independent experiments in duplicates. Format: cell-based, Bacillus subtilis. As to the method: (§2) Bacterial membrane permeabilization was evaluated using propidium iodide (PI) uptake. PI is a membrane-impermeable dye: it cannot cross intact bacterial cytoplasmic membranes, but when the membrane integrity is compromised (for example, via peptide-mediated permeabilization), PI enters the cell, intercalates into nucleic acids (DNA and RNA) and fluorescence increases markedly. B. subtilis, E. hirae and S. epidermidis cells were grown to mid-logarithmic phase, harvested by centrifugation, washed once with PBS and diluted to a concentration of 1 × 10^7 cells/mL using PBS instead of growth medium. […] Fluorescence (excitation 535 nm, emission 617 nm) was monitored every 2 min for 120 min at 37 °C using a microplate reader (GloMax®, Promega, Madison, WI, USA). The time-course fluorescence curves were recorded for each peptide concentration (in duplicate for each time point, and the entire experiment was repeated three independent times). From each time-course fluorescence curve (for a given peptide concentration), a constant time-window (for example minutes 10 to 20) was selected where the fluorescence signal was stable or in the linear uptake phase. The fluorescence values within that window were averaged to provide a representative fluorescence uptake value for that peptide concentration. […]

Assay [4] relates to E. hirae. The assay is described as follows: Membrane permeability assay (propidium iodide uptake), E. hirae. Format: cell-based, Enterococcus hirae. Conditions: 1 × 10^7 cells/mL in PBS; PI 2.5 µg/mL; 37 °C, 120 min. As to the method:
as §2

Assay [5] deals with S. epidermidis. The assay is described as follows: Membrane permeability assay (propidium iodide uptake), S. epidermidis. Format: cell-based, Staphylococcus epidermidis. As to conditions: 1 × 10^7 cells/mL in PBS; PI 2.5 µg/mL; 37 °C, 120 min. As to the method:
as §2

The test system of assay [6] is Escherichia coli ATCC25922. The class given is cell-based. As to conditions: E. coli ATCC25922; cation-adjusted MHB II; ~1 × 10^6 CFU/mL; two-fold dilutions; 37 °C, 20 h; OD 620; three independent replicates, duplicates. As to the method:
as §1

Consider `CC[C@H](C)[C@H](NC(=O)[C@H](CS)NC(=O)[C@@H](N)CCCNC(=N)N)C(=O)N[C@@H](CCCNC(=N)N)C(=O)N[C@@H](CCCNC(=N)N)C(=O)N[C@@H](CS)C(=O)N[C@@H](Cc1ccccc1)C(=O)NCC(=O)N[C@@H](Cc1ccc(O)cc1)C(=O)N[C@@H](CS)C(=O)N[C@@H](CC(C)C)C(=O)O` [EB3, Arg-Cys-Ile-Arg-Arg-Cys-Phe-Gly-Tyr-Cys-Leu] (H-RCIRRCFGYCL-OH), for which, in assay [1] (DSM 20044, 20 h), the “MIC against S. epidermidis” value came out at 25 µM (≈ 34.7 µg/mL).

On to “GQCQRKCLGHCSKKCPKHPQCRKRCIRRCFGYCL [Equinin B, 34-residue marine antimicrobial peptide isolated from the tentacle of Actinia equina]”, for which, in assay [2], the bactericidal concentrations is listed as 0.25 mg/mL and the “minimum inhibitory concentrations (MICs)” value was 1000 µg/mL.

For “LL-37 (LLGDFFRKSKEKIGKEFKRIVQRIKDFLRNLVPRTES; Antibacterial peptide LL-37; UniProt P49913 134-170, looked up)”, the “membrane permeabilization of B. subtilis (PI uptake), in words” value in assay [3] is given as “extensive membrane permeabilization”. In assay [4], the “membrane permeabilization of E. hirae (PI uptake), in words” value is “unable to permeabilize”. Further, in assay [5], the “membrane permeabilization of S. epidermidis (PI uptake), in words” value was “unable to permeabilize”.

In the case of “RRIRRRFGYRL [EB3-C, Arg-Arg-Ile-Arg-Arg-Arg-Phe-Gly-Tyr-Arg-Leu]”, the “MIC90, Staphylococcus epidermidis” value in assay [1] (DSM 20044, 20 h) was 25 to 50 µg/mL.

“RRIRRRGYRL-OH [EB3a-C, Arg-Arg-Ile-Arg-Arg-Arg-Gly-Tyr-Arg-Leu]”: the “MIC90, Escherichia coli” value in assay [6] is over 100 µg/mL. In addition, the “antimicrobial activity against S. epidermidis, in words” value in assay [1] (MIC assay, up to 100 µM) is “abolished activity”. For the same compound, in assay [1] (S. epidermidis DSM 20044, cation-adjusted MHB II, ~1 × 10^6 CFU/mL, two-fold dilutions, 37 °C, 20 h, OD 620, three independent replicates, duplicates), the “MIC90, Staphylococcus epidermidis” value is over 100 µg/mL.
